Legend:
C. albicans [1] = assay: Growth on media containing IAA (IAA sensitivity) of C. albicans CAP1 deletion mutants; type: cell-based, Candida albicans
Description: (§1) Analytical and phenotypic studies were performed in cognate deletion mutants, made in the Σ1278b background. A [^14C]Trp incorporation assay was performed to verify that phenotype observed in the library strain could be recapitulated in the newly constructed E1278b strain. Typically three independent transformants were isolated, confirmed by PCR and used for further studies. Standard culture conditions were used (Sherman et al., Laboratory Course Manual for Methods in Yeast Genetics, Cold Spring Harbor Laboratories Press, Cold Spring Harbor, N.Y., 1986) and analysis of IAA-associated phenotypes were performed as described earlier (Prusty et al., Proc. Natl. Acad. Sci. USA 101:4153-4157, 2004).
To test if other aspects of IAA regulation in S. cerevisiae were also conserved in C. albicans, we tested Cap1, the C. albicans homolog of Yap, for its sensitivity to IAA.

S. cerevisiae = assay: IAA-associated growth inhibition phenotype in S. cerevisiae ald mutants; type: cell-based, Saccharomyces cerevisiae
Description: as §1
The ability of a fungus to perceive a small molecule signal that causes it to differentiate into an invasive form has important implications for host-pathogen interactions. To test the hypothesis that mutants with aberrant IAA accumulation also affect dimorphism, we examined diploid filamentation and haploid invasive growth in all ald single mutants and selected combinations of double mutants. […] We also tested a previously reported growth inhibition phenotype associated with exposure to IAA. […] However, these phenotypes are consistent with ald2Δald3Δ mutants producing more IAA than isogenic wild-type strains.

C. albicans [2] = assay: IAA-induced filamentation in C. albicans; type: cell-based, Candida albicans
Description: as §1
IAA induces filamentation in C. albicans: The effects of the secondary metabolites identified in fungi appear to be largely species specific (Chen and Fink, Genes Dev. 20:1150-1161, 2006). […] To test whether the IAA effects could cross species barriers, we exposed wild-type C. albicans, a human pathogen, as well as attenuated mutants in the mitogen-activated protein (MAP) kinase and the cAMP-dependent protein kinase pathways to IAA. […] The cph1Δ/Δefg1Δ/Δ double mutant, which is nonfilamentous under standard laboratory conditions and avirulent in mice, filaments in the oral cavity of immunosuppressed piglets and when embedded in agar (Riggle et al., Infect. Immun. 67:3649-3652, 1999).

Structure (SMILES): O=C(O)Cc1c[nH]c2ccccc12 [IAA, indole-3-acetic acid]
- growth on media containing IAA (C. albicans [1]; heterozygous and homozygous CAP1 deletion mutants vs isogenic wild type): grew less well
- sensitivity to IAA (C. albicans [1]; heterozygous cap1Δ/+ vs wild-type CAP1+/+ or homozygous cap1Δ/Δ): intermediate sensitivity
- sensitivity to IAA (growth inhibition) (S. cerevisiae; deletion of both ald2 and ald3 vs wild-type cells): increase in sensitivity to IAA
- sensitivity to IAA (growth inhibition) (S. cerevisiae; single deletion of an ALD gene vs wild-type cells): did not affect IAA sensitivity
- filamentation (C. albicans [2]; single mutants efg1Δ/Δ or cph1Δ/Δ, exposed to IAA): showed a robust filamentation
- filamentation (C. albicans [2]; wild-type strains, treated with IAA vs untreated cells): filamented more
